From US20250049674A1, “COSMETIC OR DERMATOLOGICAL COMPOSITION COMPRISING AT LEAST A MEROCYANINE AND A HYDROTROPE” (L'OREAL, priority 2021, published 2025)
≈ marks a conversion by molar mass, not a printed value.

Assay: Water solubility of merocyanine (C)
Type: physicochemical
Settings: at 20° C.
Source text: It is therefore necessary to be able to formulate UV-screening agents of merocyanine type in an aqueous medium. In particular, for cosmetic quality and performance benefits, it is advantageous that this aqueous medium be a single-phase medium.

- solubility: ~500 µg/mL (≈ 1550 µM)
Compound: CCOCCOC(=O)/C(C#N)=C1\C=C(NCCCOC)CCC1 [Compound (C), 2-ethoxyethyl (2Z)-cyano{3-[(3-methoxypropyl)amino]cyclohex-2-en-1-ylidene}ethanoate]
